According to patent US6677488B2, “Substituted biphenyl compounds for the treatment of inflammation” (G.D. Searle & Co., priority 1995, dated 2004):

| melting point | Structure (SMILES) |
| --- | --- |
| 178 to 179 °C | CS(=O)(=O)c1ccc(-c2ccccc2-c2ccc(F)cc2)cc1 [Example 1, 1-(4-Fluorophenyl)-2-[4-(methylsulfonyl)phenyl]benzene] |
| 187.3 to 188.2 °C | NS(=O)(=O)c1ccc(-c2ccccc2-c2ccc(F)cc2)cc1 [Example 2, 4-[2-(4-Fluorophenyl)phenyl]benzenesulfonamide] |
| 206.2 to 207 °C | NS(=O)(=O)c1ccc(-c2ccccc2-c2ccc(Cl)cc2)cc1 [Example 3, 4-[2-(4-Chlorophenyl)phenyl]benzenesulfonamide] |
| 136.2 to 136.6 °C | COc1ccc(-c2ccccc2-c2ccc(S(C)(=O)=O)cc2)cc1F [Example 4, 2-Fluoro-1-methoxy-4-[2-[4-(methylsulfonyl)phenyl]phenyl]benzene] |
| 161.5 to 162.3 °C | COc1ccc(-c2ccccc2-c2ccc(S(C)(=O)=O)cc2)cc1Cl [Example 5, 2-Chloro-1-methoxy-4-[2-[4-(methylsulfonyl)phenyl]phenyl]benzene] |
| 143.5 to 145.5 °C (dec.) | COc1ccc(-c2ccccc2-c2ccc(S(N)(=O)=O)cc2)cc1F [Example 6, 4-[2-(3-Fluoro-4-methoxyphenyl)phenyl]benzenesulfonamide] |
| 179.5 to 180.2 °C | COc1ccc(-c2ccccc2-c2ccc(S(N)(=O)=O)cc2)cc1Cl [Example 7, 4-[2-(3-Chloro-4-methoxyphenyl)phenyl]benzenesulfonamide] |
| 180.2 to 180.6 °C | CS(=O)(=O)c1ccc(-c2ccccc2-c2ccc(Cl)cc2)cc1 [Example 8, 1-(4-Chlorophenyl)-2-[4-(methylsulfonyl)phenyl]benzene] |
| 187.5 to 187.8 °C | NS(=O)(=O)c1ccc(-c2ccccc2-c2ccc(C(F)(F)F)cc2)cc1 [Example 9, 4-[2-[4-(Trifluoromethyl)phenyl]phenyl]benzenesulfonamide] |
| 179.5 to 181.1 °C | CS(=O)(=O)c1ccc(-c2ccccc2-c2ccc(F)c(Cl)c2)cc1 [Example 10, 2-Chloro-1-fluoro-4-[2-[4-(methylsulfonyl)phenyl]phenyl]benzene] |
| 172.8 to 173.5 °C | CS(=O)(=O)c1ccc(-c2cc(F)c(F)cc2-c2ccc(F)cc2)cc1 [Example 11, 1,2-Difluoro-4-(4-fluorophenyl)-5-[4-(methylsulfonyl)phenyl]benzene] |
| 192.5 to 193.2 °C | NS(=O)(=O)c1ccc(-c2ccccc2-c2ccc(F)c(Cl)c2)cc1 [Example 12, 4-[2-(3-Chloro-4-fluorophenyl)phenyl]benzenesulfonamide] |
| 190.2 to 191.5 °C | NS(=O)(=O)c1ccc(-c2cc(F)c(F)cc2-c2ccc(F)cc2)cc1 [Example 13, 4-[3,4-Difluoro-6-(4-fluorophenyl)phenyl]benzenesulfonamide] |
| 172.2 to 172.5 °C | CS(=O)(=O)c1ccc(-c2cc(F)c(F)cc2-c2ccc(F)c(Cl)c2)cc1 [Example 14, 1-(3-Chloro-4-fluorophenyl)-4,5-difluoro-2-[4-(methylsulfonyl)phenyl]benzene] |
| 202 to 203 °C | NS(=O)(=O)c1ccc(-c2c(F)c(F)c(F)c(F)c2-c2ccc(F)cc2)cc1 [Example 15, 4-[2,3,4,5-Tetrafluoro-6-(4-fluorophenyl)phenyl]benzenesulfonamide] |
| 162.5 to 162.8 °C | NS(=O)(=O)c1ccc(-c2cc(F)c(F)cc2-c2ccc(F)c(Cl)c2)cc1 [Example 16, 4-[2-(3-Chloro-4-fluorophenyl)-4,5-difluorophenyl]benzenesulfonamide] |

| melting point | Structure (SMILES) |
| --- | --- |
| 173 to 174 °C | CS(=O)(=O)c1ccc(-c2cc3c(cc2-c2ccc(F)cc2)OCO3)cc1 [Example 17, 5-(4-Fluorophenyl)-6-[4-(methylsulfonyl)phenyl]-1,3-benzodioxole] |
| 147.5 to 148.5 °C | COc1ccc(-c2cc(F)c(F)cc2-c2ccc(S(C)(=O)=O)cc2)cc1Cl [Example 18, 1-(3-Chloro-4-methoxyphenyl)-4,5-difluoro-2-[4-(methylsulfonyl)phenyl]benzene] |
| 159.2 to 159.7 °C | COc1ccc(-c2cc(F)c(F)cc2-c2ccc(S(C)(=O)=O)cc2)cc1F [Example 19, 1,2-Difluoro-4-(3-fluoro-4-methoxyphenyl)-5-[4-(methylsulfonyl)phenyl]benzene] |
| 70 °C (dec.) | COc1ccc(-c2cc(F)c(F)cc2-c2ccc(S(N)(=O)=O)cc2)cc1Cl [Example 20, 4-[2-(3-Chloro-4-methoxyphenyl)-4,5-difluorophenyl]benzenesulfonamide] |
| 132.2 to 132.8 °C | COc1ccc(-c2cc(F)c(F)cc2-c2ccc(S(N)(=O)=O)cc2)cc1F [Example 21, 4-[4,5-Difluoro-2-(3-fluoro-4-methoxyphenyl)phenyl]benzenesulfonamide] |
| 191 to 192.5 °C | NS(=O)(=O)c1ccc(-c2cc3c(cc2-c2ccc(F)cc2)OCO3)cc1 [Example 22, 4-[6-(4-Fluorophenyl)-1,3-benzodioxol-5-yl]benzenesulfonamide] |
| 147 to 148 °C | Cc1ccc(-c2cc(F)c(F)cc2-c2ccc(S(C)(=O)=O)cc2)cc1 [Example 23, 1,2-Difluoro-4-(4-methylphenyl)-5-[4-(methylsulfonyl)phenyl]benzene] |
| 110 to 111 °C | CS(=O)(=O)c1ccc(-c2cc(F)c(F)cc2-c2ccc3c(c2)OCO3)cc1 [Example 24, 5-[4,5-Difluoro-2-[4-(methylsulfonyl)phenyl]phenyl]-1,3-benzodioxole] |
| 103 to 104 °C | Cc1ccc(-c2cc(F)c(F)cc2-c2ccc(S(N)(=O)=O)cc2)cc1 [Example 25, 4-[4,5-Difluoro-2-(4-methylphenyl)phenyl]benzenesulfonamide] |
| 142 to 143 °C | NS(=O)(=O)c1ccc(-c2cc(F)c(F)cc2-c2ccc3c(c2)OCO3)cc1 [Example 26, 4-[2-(1,3-Benzodioxol-5-yl)-4,5-difluorophenyl]benzenesulfonamide] |
| 138 to 139 °C | Cc1ccc(-c2cc(F)c(F)cc2-c2ccc(S(C)(=O)=O)cc2)cc1Cl [Example 27, 1-(3-Chloro-4-methylphenyl)-4,5-difluoro-2-[4-(methylsulfonyl)phenyl]benzene] |
| 129 to 130 °C | CN(C)c1ccc(-c2cc(F)c(F)cc2-c2ccc(S(C)(=O)=O)cc2)cc1Cl [Example 28, 2-Chloro-4-[4,5-difluoro-2-[4-(methylsulfonyl)phenyl]phenyl]-N,N-dimethylbenzenamine] |
| 139 to 140 °C | Cc1ccc(-c2cc(F)c(F)cc2-c2ccc(S(N)(=O)=O)cc2)cc1Cl [Example 29, 4-[2-(3-Chloro-4-methylphenyl)-4,5-difluorophenyl]benzenesulfonamide] |
| 193 to 194 °C | CN(C)c1ccc(-c2cc(F)c(F)cc2-c2ccc(S(N)(=O)=O)cc2)cc1Cl [Example 30, 4-[2-[3-Chloro-4-(N,N-dimethylamino)phenyl]-4,5-difluorophenyl]benzenesulfonamide] |
| 167.2 to 167.5 °C | Cc1cc(-c2cc(F)c(F)cc2-c2ccc(S(C)(=O)=O)cc2)ccc1F [Example 31, 1,2-Difluoro-4-(4-fluoro-3-methylphenyl)-5-[4-(methylsulfonyl)phenyl]benzene] |
